Results on seven compounds are retold here after PubChem BioAssay (NCI).

Structures are written as SMILES.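 Tested at 5 concentrations; 48 h exposure; 96-well plates; endpoints linearly interpolated, else capped at highest concentration. Definition used: TGI = concentration required for complete inhibition of growth.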

Some test systems named below: RXF 393 renal; SN12C renal; HCT-116 colon; OVCAR-3 ovarian; HCT-15 colon; MDA-MB-231 breast; COLO 205 colon; ACHN renal; SF-539 CNS; HL-60(TB) leukemia; LOX IMVI melanoma; SF-268 CNS; EKVX NSCLC; UO-31 renal; KM12 colon; SK-MEL-5 melanoma; CAKI-1 renal; K-562 leukemia.
Holding throughout (assay): NCI-60 cell line screen, 48 h

Regarding `C=CCOc1ccc(/C(N=Nc2ccccc2)=N/NC(=O)c2ccccc2)cc1OC`, the TGI with RXF 393 renal, with SN12C renal, in the assay with HCT-116 colon, in the assay with OVCAR-3 ovarian, in the assay on HCT-15 colon and in the assay on MDA-MB-231 breast was more than 100 µM in each case. Moreover, the TGI with COLO 205 colon, with ACHN renal, in the assay with SF-539 CNS, in the assay with HL-60(TB) leukemia, in the assay with LOX IMVI melanoma and in the assay with SF-268 CNS was more than 100 µM throughout. Besides, the TGI in the assay with EKVX NSCLC, in the assay with UO-31 renal, in the assay with KM12 colon, in the assay on SK-MEL-5 melanoma and in the assay on CAKI-1 renal was more than 100 µM in each case.

As for `CC(=O)O[C@@H]1[C@H]2[C@@H](OC(=O)c3ccccc3)[C@@H](C)C[C@]2(O)[C@H](OC(C)=O)[C@@]2(C)[C@@H]3CC(C)(C)C(=O)[C@]3(OC(C)=O)C[C@@]12C`, the TGI in the assay on RXF 393 renal, in the assay on SN12C renal, in the assay on HCT-116 colon, with OVCAR-3 ovarian, in the assay with HCT-15 colon and in the assay with MDA-MB-231 breast was more than 25 µM in each case. Besides, the TGI in the assay with COLO 205 colon, in the assay with ACHN renal, with SF-539 CNS, in the assay with HL-60(TB) leukemia, in the assay on LOX IMVI melanoma and with SF-268 CNS was more than 25 µM each time. Moreover, the TGI in the assay on EKVX NSCLC, with UO-31 renal, with KM12 colon, in the assay on SK-MEL-5 melanoma and with CAKI-1 renal was more than 25 µM each time.

For the compound `COc1ccc(N=Nc2ccc3oc(=O)c(C(=O)Nc4ccccc4)cc3c2)cc1`, the TGI in the assay with RXF 393 renal, in the assay on SN12C renal, with HCT-116 colon, with OVCAR-3 ovarian, in the assay on HCT-15 colon and in the assay with MDA-MB-231 breast was more than 10 µM throughout. Besides, the TGI in the assay on COLO 205 colon, with ACHN renal, in the assay on SF-539 CNS, with HL-60(TB) leukemia, with LOX IMVI melanoma and with SF-268 CNS was more than 10 µM in each case. Besides, the TGI in the assay on EKVX NSCLC, in the assay with UO-31 renal, in the assay on KM12 colon, in the assay with SK-MEL-5 melanoma and in the assay with CAKI-1 renal was more than 10 µM each time.

`COc1ccc(-c2cc(-c3ccc(Nc4ccnc5cc(Cl)ccc45)cc3)nc(N)c2C#N)cc1`: the TGI in the assay with K-562 leukemia, in the assay with RXF 393 renal, in the assay on HCT-116 colon, with OVCAR-3 ovarian, with HCT-15 colon and in the assay with MDA-MB-231 breast was more than 100 µM throughout. In addition, the TGI in the assay with COLO 205 colon, in the assay with ACHN renal, in the assay with SF-539 CNS, in the assay on HL-60(TB) leukemia, in the assay with LOX IMVI melanoma and with SF-268 CNS was more than 100 µM in each case. The TGI in the assay with EKVX NSCLC is more than 100 µM; in the assay on UO-31 renal it was 70.1 µM; in the assay on KM12 colon, more than 100 µM; in the assay with CAKI-1 renal it was more than 100 µM.

Regarding `CCN(CCCN(CC)C(=O)Nc1ccccc1)C(=O)Nc1ccccc1`, the TGI with K-562 leukemia, in the assay with RXF 393 renal, in the assay on SN12C renal, with HCT-116 colon, in the assay on OVCAR-3 ovarian and in the assay on HCT-15 colon was more than 100 µM throughout. Further, the TGI in the assay with MDA-MB-231 breast, in the assay with COLO 205 colon, in the assay on ACHN renal, with SF-539 CNS, in the assay on HL-60(TB) leukemia and with LOX IMVI melanoma was more than 100 µM each time. Moreover, the TGI in the assay on EKVX NSCLC, in the assay on UO-31 renal, in the assay with KM12 colon, in the assay on SK-MEL-5 melanoma and with CAKI-1 renal was more than 100 µM throughout.

As to `Cc1cc(OCc2nn(CN3CCN(C)CC3)c(=S)n2/N=C/c2ccc(-c3ccc(Cl)cc3Cl)o2)ccc1Cl`, the TGI with K-562 leukemia was more than 100 µM; with RXF 393 renal, 41.3 µM; in the assay on HCT-116 colon it was more than 100 µM; with OVCAR-3 ovarian, more than 100 µM; in the assay on HCT-15 colon, more than 100 µM; in the assay with MDA-MB-231 breast, more than 100 µM. Also, the TGI in the assay with ACHN renal was more than 100 µM; in the assay on SF-539 CNS, more than 100 µM; in the assay with HL-60(TB) leukemia, 52.6 µM; in the assay with LOX IMVI melanoma, more than 100 µM; with SF-268 CNS, more than 100 µM; with EKVX NSCLC, more than 100 µM. For the same compound, the TGI in the assay on UO-31 renal was more than 100 µM; with KM12 colon it was 47.6 µM; in the assay with SK-MEL-5 melanoma, more than 100 µM; with CAKI-1 renal, more than 100 µM.

As for `C=C(C(=O)O)C1CCC(CC/C=C(\C)CC/C=C(\C)CCC=C(C)C)CO1` (stereo unspecified), the TGI in the assay on RXF 393 renal was 29.6 µM; in the assay on SN12C renal, 34.3 µM; in the assay with HCT-116 colon it was 17.8 µM; in the assay on HCT-15 colon, 31.9 µM; in the assay with MDA-MB-231 breast it was more than 100 µM; with COLO 205 colon, 27.4 µM. For the same compound, the TGI with ACHN renal is more than 100 µM; in the assay on SF-539 CNS it was 32.4 µM; in the assay with HL-60(TB) leukemia it was 69.4 µM; in the assay on LOX IMVI melanoma it was 24.6 µM; in the assay with SF-268 CNS, more than 100 µM; in the assay on EKVX NSCLC, 34.1 µM. In addition, the TGI was 30 µM in the assay with UO-31 renal, 28.4 µM with KM12 colon, 24.9 µM in the assay on SK-MEL-5 melanoma and more than 100 µM in the assay with CAKI-1 renal.
